Data on 25 compounds can be found in US20020183384A1, “Methods of treating nuclear factor-kappa B mediated diseases and disorders” (priority 2001, published 2002).

Some results are limits rather than exact numbers.

The term inhibition denotes the relative decrease from the control value, in per cent.

One assay deals with NF-κB mediated transcription. The assay is described as follows: NF-κB driven β-lactamase reporter assay in ECV-304 NF-κB.βlaZ cells (AURORA CCF2 fluorescence). The format is cell-based, human. As to conditions: 10 μM compound; ECV-304 NF-κB.βlaZ cells stimulated with 10 ng/mL TNF-α or 100 pg/mL IL-1β, 6 hours at 37° C.; inhibition of maximum blue/green ratio. Summed up: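 ECV-304 cells (clone 1E8) stably carrying a β-lactamase reporter driven by 5 HIV-1 NF-κB sites, plated in M-199 with 2% FBS, compound at 10 μM final. CCF2 read at 395 nm excitation, blue 460 nm/green 530 nm emission ratio; IC50 from dose-response curve.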
On the technique in general: Reporter assays use an easily measured gene product as a stand-in for the process of interest.
For the compound “[2-(2,4,6-Triisopropyl-phenyl)-acetyl]-sulfamic acid 4-(benzylamino-methyl)-2,6-diisopropyl-phenyl ester; compound with generic inorganic neutral component [Example 229]”, the “Percent Inhibition at 10 μM” value stood at 75.79%.

Staying with this assay, now noted: 10 μM compound; ECV-304 NF-κB.βlaZ cells stimulated with 10 ng/mL TNF-α or 100 pg/mL IL-1β, 6 hours at 37° C.; inhibition of maximum blue/green ratio; 10 µM.
Consider `CCCCCCCCCCCCOC(=O)NS(=O)(=O)Nc1c(C(C)C)cccc1C(C)C` [Example 250, Carbamic acid, [[[2,6-bis(1-methylethyl)phenyl]amino]sulfonyl]-, dodecyl ester], for which the “Percent Inhibition at 10 μM” value is <10%.

The assay is the same for the next values; noted with them: Homo sapiens, ECV-304, 6 h, 10 μM compound; ECV-304 NF-κB.βlaZ cells stimulated with 10 ng/mL TNF-α or 100 pg/mL IL-1β, 6 hours at 37° C.; inhibition of maximum blue/green ratio; read-out: Percent Inhibition at 10 μM.
As to `CC(C)c1cc(C(C)C)c(CC(=O)NS(=O)(=O)Oc2c(C(C)C)cc(NS(=O)(=O)c3cccc4c(N(C)C)cccc34)cc2C(C)C)c(C(C)C)c1` [Example 226, [(2,4,6-Triisopropyl-phenyl)-acetyl]-sulfamic acid 4-(5-dimethylamino-naphthalene-1-sulfonylamino)-2,6-diisopropyl-phenyl ester], the inhibition at 10 µM worked out at 46.3%.
`CC(C)c1cc(C(C)C)c(CC(=O)NS(=O)(=O)Oc2c(C(C)C)cc(NS(C)(=O)=O)cc2C(C)C)c(C(C)C)c1` [Example 227, [(2,4,6-Triisopropyl-phenyl)-acetyl]-sulfamic acid 2,6-diisopropyl-4-methanesulfonylamino-phenyl ester]: the inhibition at 10 µM came out at 77.3%.
In the case of `COC(=O)c1cc(C(C)C)c(OS(=O)(=O)NC(=O)Cc2c(C(C)C)cc(C(C)C)cc2C(C)C)c(C(C)C)c1` [Example 228, 3,5-Diisopropyl-4-{[(2,4,6-triisopropyl-phenyl)-acetyl]sulfamoyloxy}-benzoic acid methyl ester], the inhibition at 10 µM came out at 76.1%.
Consider `CC(C)c1cc(C(C)C)c(CC(=O)NS(=O)(=O)Oc2c(C(C)C)cc(NC(=O)[C@@H](N)CO)cc2C(C)C)c(C(C)C)c1` [Example 230, [2-(2,4,6-Triisopropyl-phenyl)-acetyl]-sulfamic acid 4-((S)-2-amino-3-hydroxy-propionylamino)-2,6-diisopropyl-phenyl ester; compound with trifluoro-acetic acid], for which the inhibition at 10 µM stood at 75.2%.
Regarding `CC(C)c1cc(C(C)C)c(CC(=O)NS(=O)(=O)Oc2c(C(C)C)cc(NC(=O)[C@@H](N)CCC(N)=O)cc2C(C)C)c(C(C)C)c1` [Example 231, [2-(2,4,6-Triisopropyl-phenyl)-acetyl]-sulfamic acid 4-((S)-2-amino-4-carbamoyl-butyrylamino)-2,6-diisopropyl-phenyl ester; compound with trifluoro-acetic acid], the inhibition at 10 µM came out at 78.1%.
Still for that read-out and setting: the value for `CC(C)c1cc(C(C)C)c(CC(=O)NS(=O)(=O)Oc2c(C(C)C)cc(NC(=O)[C@@H](N)C(C)C)cc2C(C)C)c(C(C)C)c1` [Example 232, [2-(2,4,6-Triisopropyl-phenyl)-acetyl]-sulfamic acid 4-((S)-2-amino-3-methyl-butyrylamino)-2,6-diisopropyl-phenyl ester; compound with trifluoro-acetic acid] was 76.9%; that for `CC(C)c1cc(C(C)C)c(CC(=O)NS(=O)(=O)Oc2c(C(C)C)cc(CO)cc2C(C)C)c(C(C)C)c1` [Example 233, [(2,4,6-Triisopropyl-phenyl)-acetyl]-sulfamic acid 4-hydroxymethyl-2,6-diisopropyl-phenyl ester] was 76.9%.
With `CC(C)c1cc(C(C)C)c(CC(=O)NS(=O)(=O)Oc2c(C(C)C)cc(C(N)=O)cc2C(C)C)c(C(C)C)c1` [Example 234, [(2,4,6-Triisopropyl-phenyl)-acetyl]-sulfamic acid 4-carbamoyl-2,6-diisopropyl-phenyl ester], the inhibition at 10 µM was 76.7%.
Same read-out and setting: in the case of `CC(C)c1cc(C(C)C)c(CC(=O)NS(=O)(=O)Oc2c(C(C)C)cc(NC(=S)Nc3cc(Cl)cc(Cl)c3)cc2C(C)C)c(C(C)C)c1` [Example 235, [(2,4,6-Triisopropyl-phenyl)-acetyl]-sulfamic acid 4-[3-(3,5-dichloro-phenyl)-thioureido]-2,6-diisopropyl-phenyl ester] it was 146%; in that of `C/C(=C\c1ccccc1)C(=O)NS(=O)(=O)Oc1c(C(C)C)cccc1C(C)C` [Example 236, ((E)-2-Methyl-3-phenyl-acryloyl)-sulfamic acid 2,6-diisopropyl-phenyl ester], 79.4%.
For the compound `CC(C)c1cccc(C(C)C)c1OS(=O)(=O)NC(=O)c1cc2ccccc2oc1=O` [Example 237, (2-Oxo-2H-chromene-3-carbonyl)-sulfamic acid 2,6-diisopropyl-phenyl ester], the inhibition at 10 µM is 57.1%.
The same measure, in the same setting: in the case of `CCCCCCCCCCCCCCCCS(=O)(=O)NC(=O)Nc1c(C(C)C)cccc1C(C)C` [Example 238, N-[2,6-bis(1-methylethyl)phenyl]-N′-(hexadecylsulfonyl)-urea] it was 12%; in that of `CCOc1ccc2nc(S(=O)(=O)NC(=O)Nc3c(C(C)C)cccc3C(C)C)sc2c1` [Example 239, N-[2,6-bis(1-methylethyl)phenyl]-N′-[(6-ethoxy-2-benzothiazolyl)sulfonyl]-urea], < 10%; in that of `CCCCCCCCCCCCCCS(=O)(=O)NC(=O)Nc1c(C(C)C)cccc1C(C)C` [Example 240, N-[2,6-bis(1-methylethyl)phenyl]-N′-(tetradecylsulfonyl)-urea], 10.3%.
Same read-out and setting: the value for `CCCCCCCCCCCCCCS(=O)(=O)N(C)C(=O)Nc1c(C(C)C)cccc1C(C)C` [Example 241, N′-[2,6-bis(1-methylethyl)phenyl]-N-methyl-N-(tetradecylsulfonyl)-urea] was < 10%.
Consider `CCCCCCCCCCCCCS(=O)(=O)NC(=O)Nc1c(C(C)C)cccc1C(C)C` [Example 242, N-[2,6-bis(1-methylethyl)phenyl]-N′-(tridecylsulfonyl)urea], for which the inhibition at 10 µM was < 10%.
Still for that read-out and setting: in the case of `CCCCCCCCC(c1ccccc1)S(=O)(=O)NC(=O)Nc1c(C(C)C)cccc1C(C)C` (stereo not shown) [Example 243, N-[2,6-bis(1-methylethyl)phenyl]-N′-(1-phenyl-1-nonylsulfonyl)urea] it was < 10%; in that of `CCCCCCCCC(C)S(=O)(=O)NC(=O)Nc1c(C(C)C)cccc1C(C)C` (stereo not shown) [Example 244, N-[2,6-bis(1-methylethyl)phenyl]-N′-(2-decylsulfonyl)urea], < 10%; in that of `CCCCCCCCCCCCCC(c1ccccc1)S(=O)(=O)NC(=O)Nc1c(C(C)C)cccc1C(C)C` (stereo not shown) [Example 245, N-[2,6-bis(1-methylethyl)phenyl]-N′-(1-phenyl-1-tetradecylsulfonyl)urea], 16.1%.
Turning to `CCCCCCCCCCCCCCCCC(C)S(=O)(=O)NC(=O)Nc1c(C(C)C)cccc1C(C)C` (stereo not shown) [Example 246, N-[2,6-bis(1-methylethyl)phenyl]-N′-(2-octadecylsulfonyl)urea], the inhibition at 10 µM was < 10%.
The same measure, in the same setting: the value for `CCCCCCCCCCCCCCCCC(C)S(=O)(=O)NC(=O)Nc1c(OC)cc(OC)cc1OC` (stereo not shown) [Example 247, N-[2,4,6-trimethoxyphenyl]-N′-(2-octadecylsulfonyl)urea] was 14.8%.
For the compound `CCCCCCCCCCCCCC(C)(C)S(=O)(=O)NC(=O)Nc1c(C(C)C)cccc1C(C)C` [Example 248, N-[2,6-bis(1-methylethyl)phenyl]-N′-(2-methyl-2-pentadecylsulfonyl)urea], the inhibition at 10 µM turned out to be 11.4%.
Still for that read-out and setting: in the case of `CCCCCCCCCCCCCC(C)(C)S(=O)(=O)NC(=O)Nc1c(OC)cc(OC)cc1OC` [Example 249, N-[2,4,6-trimethoxyphenyl]-N′-(2-methyl-2-pentadecylsulfonyl)urea] it was < 10%.
